# Laboratory results reported in patent US10051861B2, “N-arylamidine-substituted trifluoroethyl sulfide derivatives as acaricides and insecticides” (BAYER CROPSCIENCE AG, priority 2011, dated 2018).
# System: greenhouse red spider mite (Tetranychus urticae)
# Assay: Tetranychus urticae spray test, OP-resistant (TETRUR), bean leaf disks
# Type: in vivo
# Settings: Tetranychus urticae, foliar, 144 h, application rate 500 g/ha, after 6 days; read-out: efficacy (spider mites killed)
# Description: After 6 days, the effect in % is determined.
row,SMILES,pest or weed control at 500 g/ha [%]
1,Cc1cc(C)c([S+]([O-])CC(F)(F)F)cc1/N=C(\N)C1(Cl)CC1 (stereo not shown) [Ib-79],100
2,N/C(=N\c1cc([S+]([O-])CC(F)(F)F)c(Cl)cc1Cl)C(F)F (stereo not shown) [Ib-80],100
3,Cc1cc(F)c(/N=C(\c2cccs2)N(C)C)cc1[S+]([O-])CC(F)(F)F (stereo not shown) [Ib-81],100
4,Cc1cc(F)c(/N=C(\c2cccn2C)N(C)C)cc1[S+]([O-])CC(F)(F)F (stereo not shown) [Ib-82],100
5,CCN/C(=N\c1cc([S+]([O-])CC(F)(F)F)c(C)cc1F)c1cccnc1 (stereo not shown) [Ib-84],100
6,Cc1cc(F)c(/N=C(\c2ccccc2F)N(C)C)cc1[S+]([O-])CC(F)(F)F (stereo not shown) [Ib-87],100
7,Cc1cc(F)c(/N=C(\NC2CC2)c2ccc(Cl)nc2)cc1[S+]([O-])CC(F)(F)F (stereo not shown) [Ib-88],100
8,CN/C(=N\c1cc([S+]([O-])CC(F)(F)F)c(Cl)cc1C)C(F)(F)F (stereo not shown) [Ib-90],100
9,Cc1cc(F)c(/N=C(/NC2CS(=O)(=O)C2)C(F)(F)F)cc1[S+]([O-])CC(F)(F)F (stereo not shown) [Ib-91],90
10,CN/C(=N/c1cc([S+]([O-])CC(F)(F)F)c(C)cc1F)c1ccc(C(F)(F)F)nc1 (stereo not shown) [Ib-92],100
11,Cc1cc(C)c([S+]([O-])CC(F)(F)F)cc1/N=C(\N)c1ccc(Cl)nc1 (stereo not shown) [Ib-94],100
12,CN/C(=N\c1cc([S+]([O-])CC(F)(F)F)c(Cl)cc1Cl)c1cccnc1 (stereo not shown) [Ib-95],100
13,Cc1cc(F)c(/N=C(/N2CCCC2)C(F)(F)F)cc1[S+]([O-])CC(F)(F)F (stereo not shown) [Ib-96],90
14,CN/C(=N\c1cc([S+]([O-])CC(F)(F)F)c(C)cc1F)c1ccncc1 (stereo not shown) [Ib-97],100
15,Cc1cc(C)c([S+]([O-])CC(F)(F)F)cc1/N=C(/c1cccnc1)N(C)C (stereo not shown) [Ib-98],100
16,Cc1cc(F)c(/N=C(\N)C2CCC2)cc1[S+]([O-])CC(F)(F)F (stereo not shown) [Ib-99],100
17,CN/C(=N\c1cc([S+]([O-])CC(F)(F)F)c(C)cc1C)c1ccc(Cl)cc1 (stereo not shown) [Ib-100],100
18,Cc1cc(C)c([S+]([O-])CC(F)(F)F)cc1/N=C(\N)c1ccccn1 (stereo not shown) [Ib-102],90
19,CN/C(=N\c1cc([S+]([O-])CC(F)(F)F)c(Cl)cc1C)c1cccnc1 (stereo not shown) [Ib-103],90
20,CN/C(=N\c1cc([S+]([O-])CC(F)(F)F)c(C)cc1F)c1cnc(Cl)c(Cl)c1 (stereo not shown) [Ib-104],90
21,CN/C(=N\c1cc([S+]([O-])CC(F)(F)F)c(Cl)cc1Cl)c1ccccn1 (stereo not shown) [Ib-109],100
22,Cc1cc(C)c([S+]([O-])CC(F)(F)F)cc1/N=C1\CCCN1C(C)C(F)(F)F (stereo not shown) [Ib-112],100
23,CN/C(=N/c1cc([S+]([O-])CC(F)(F)F)c(C)cc1F)c1cccc(C(F)(F)F)c1 (stereo not shown) [Ib-113],100

row,SMILES,pest or weed control at 500 g/ha [%]
1,Cc1cc(F)c(/N=C(\c2cccc(C(F)(F)F)c2)N(C)C)cc1[S+]([O-])CC(F)(F)F (stereo not shown) [Ib-114],100
2,Cc1cc(F)c(/N=C2\SCC(=O)N2CC(F)F)cc1[S+]([O-])CC(F)(F)F (stereo not shown) [Ib-116],90
3,O=C1CS/C(=N\c2cc([S+]([O-])CC(F)(F)F)ccc2F)N1CC(F)(F)F (stereo not shown) [Ib-117],100
4,Cc1cc(F)c(/N=C(/N)c2ccc(Cl)cc2)cc1[S+]([O-])CC(F)(F)F (stereo not shown) [Ib-118],100
5,CN(C)/C(=N\c1cc([S+]([O-])CC(F)(F)F)c(Cl)cc1Cl)c1ccc(Cl)nc1 (stereo not shown) [Ib-119],100
6,O=C1CS/C(=N\c2cc([S+]([O-])CC(F)(F)F)c(Cl)cc2F)N1CC(F)(F)F (stereo not shown) [Ib-120],100
7,O=C1CS/C(=N\c2cc([S+]([O-])CC(F)(F)F)ccc2Cl)N1CC(F)(F)F (stereo not shown) [Ib-121],100
8,O=C1CS/C(=N\c2cc([S+]([O-])CC(F)(F)F)c(Cl)cc2Cl)N1C1CC1 (stereo not shown) [Ib-122],90
9,Cc1cc(F)c(/N=C(\c2ccc(C(F)(F)F)cc2)N(C)C)cc1[S+]([O-])CC(F)(F)F (stereo not shown) [Ib-124],90
10,CN/C(=N/c1ccc(C)c([S+]([O-])CC(F)(F)F)c1)C(F)(F)F (stereo not shown) [Ib-125],100
11,Cc1cc(C)c([S+]([O-])CC(F)(F)F)cc1/N=C(/c1ccccc1)N(C)C (stereo not shown) [Ib-126],100
12,CN(C)/C(=N\c1cc([S+]([O-])CC(F)(F)F)c(Cl)cc1Cl)c1ccccc1 (stereo not shown) [Ib-127],100
13,Cc1cc(F)c(/N=C/N(C)C)cc1[S+]([O-])CC(F)(F)F (stereo not shown) [Ib-128],90
14,[O-][S+](CC(F)(F)F)c1cc(/N=C(\NCC(F)F)C2CC2)c(Cl)cc1Cl (stereo not shown) [Ib-129],100
15,[O-][S+](CC(F)(F)F)c1cc(/N=C(\NCCc2ncc(C(F)(F)F)cc2Cl)C2CC2)c(Cl)cc1Cl (stereo not shown) [Ib-130],100
16,Cc1cc(F)c(/N=C(\N)C2CCCCC2)cc1[S+]([O-])CC(F)(F)F (stereo not shown) [Ib-131],100
17,Cc1cc(F)c(/N=C(\NCC(F)F)C2CC2)cc1[S+]([O-])CC(F)(F)F (stereo not shown) [Ib-132],100
18,Cc1cc(C)c([S+]([O-])CC(F)(F)F)cc1/N=C(/c1ccc(Cl)nc1)N(C)C (stereo not shown) [Ib-133],90
19,Cc1cc(F)c(/N=C2\SCC(=O)N2C)cc1[S+]([O-])CC(F)(F)F (stereo not shown) [Ib-134],90
20,Cc1cc(F)c(/N=C2\SCC(=O)N2C2CC2)cc1[S+]([O-])CC(F)(F)F (stereo not shown) [Ib-135],100
21,Cc1cc(C)c([S+]([O-])CC(F)(F)F)cc1/N=C(\NC1CC1)c1ccc(Cl)nc1 (stereo not shown) [Ib-136],90
22,Cc1cc(Cl)c([S+]([O-])CC(F)(F)F)cc1/N=C(\N)C1(Cl)CC1 (stereo not shown) [Ib-138],100
23,Cc1ccc(/N=C2\SCC(=O)N2CC(F)(F)F)cc1[S+]([O-])CC(F)(F)F (stereo not shown) [Ib-139],100

row,SMILES,pest or weed control at 500 g/ha [%]
1,CN/C(=N\c1cc([S+]([O-])CC(F)(F)F)c(Cl)cc1Cl)c1cccc(Cl)c1 (stereo not shown) [Ib-140],100
2,Cc1cc(C)c([S+]([O-])CC(F)(F)F)cc1/N=C1\SCC(=O)N1CC(F)(F)F (stereo not shown) [Ib-141],100
3,Cc1cc(C)c([S+]([O-])CC(F)(F)F)cc1/N=C(\NCC(F)(F)F)C1CCC1 (stereo not shown) [Ib-142],90
4,CN/C(=N\c1cc([S+]([O-])CC(F)(F)F)c(Cl)cc1Cl)c1ccc(C(F)(F)F)nc1 (stereo not shown) [Ib-144],90
5,CN/C(=N/c1cc([S+]([O-])CC(F)(F)F)c(C)cc1F)c1ccc(C(F)(F)F)cc1 (stereo not shown) [Ib-145],90
6,O=C1CS/C(=N\c2ccc(Cl)c([S+]([O-])CC(F)(F)F)c2)N1CC(F)(F)F (stereo not shown) [Ib-146],90
7,Cc1cc(C)c([S+]([O-])CC(F)(F)F)cc1/N=C(/c1ccccc1Cl)N(C)C (stereo not shown) [Ib-147],90
8,CN/C(=N/c1cc([S+]([O-])CC(F)(F)F)c(C)cc1F)c1ccccc1C(F)(F)F (stereo not shown) [Ib-148],100
9,CN/C(=N\c1cc([S+]([O-])CC(F)(F)F)c(Cl)cc1Cl)c1ccc(Cl)cc1 (stereo not shown) [Ib-149],90
10,CCN/C(=N\c1cc([S+]([O-])CC(F)(F)F)c(Cl)cc1Cl)c1cccnc1 (stereo not shown) [Ib-150],90
11,[O-][S+](CC(F)(F)F)c1cc(/N=C(\NC2CC2)c2ccc(Cl)nc2)c(Cl)cc1Cl (stereo not shown) [Ib-151],100
12,CN/C(=N\c1cc([S+]([O-])CC(F)(F)F)c(Cl)cc1Cl)c1ccncc1 (stereo not shown) [Ib-152],90
13,Cc1cc(Cl)c([S+]([O-])CC(F)(F)F)cc1/N=C(\N)c1cnccn1 (stereo not shown) [Ib-153],90
14,Cc1cc(C)c([S+]([O-])CC(F)(F)F)cc1/N=C(/c1ccc(Cl)cc1)N(C)C (stereo not shown) [Ib-154],90
15,Cc1cc(C)c([S+]([O-])CC(F)(F)F)cc1/N=C(\NCC(F)(F)F)C1CCCC1 (stereo not shown) [Ib-155],90
16,Cc1cc(C)c([S+]([O-])CC(F)(F)F)cc1/N=C1\SCC(=O)N1C1CC1 (stereo not shown) [Ib-156],90
17,Cc1cc(C)c([S+]([O-])CC(F)(F)F)cc1/N=C(/c1ccccc1Cl)N1CCOCC1 (stereo not shown) [Ib-157],90
18,Cc1cc(F)c(/N=c2\sc(C)c(C)n2CC(F)(F)F)cc1[S+]([O-])CC(F)(F)F (stereo not shown) [Ib-158],90
19,Cc1cc(C)c([S+]([O-])CC(F)(F)F)cc1/N=C(\NC(C)C(F)(F)F)C1CC1 (stereo not shown) [Ib-160],100
20,Cc1cc(F)c(/N=C(\NCC(F)(F)F)C2CCC2)cc1[S+]([O-])CC(F)(F)F (stereo not shown) [Ib-166],90
21,[O-][S+](CC(F)(F)F)c1cc(/N=C(\NCC(F)(F)F)C2CCC2)c(Cl)cc1Cl (stereo not shown) [Ib-167],90
22,Cc1cc(F)c(/N=C2\CCCN2C(C)C(F)(F)F)cc1[S+]([O-])CC(F)(F)F (stereo not shown) [Ib-169],100

# Same assay, conditions: application rate 500 g/ha, after 6 days
row,SMILES,efficacy (spider mites killed) [%]
1,Cc1cc(F)c(/N=C(\c2ccc(C#N)cc2)N(C)C)cc1[S+]([O-])CC(F)(F)F (stereo not shown) [Ib-77],90
2,CN/C(=N\c1cc([S+]([O-])CC(F)(F)F)c(C)cc1F)c1cccnc1 (stereo not shown) [Ib-93],100
